Experimental findings from US20090018162A1, “USE OF 6-(3-CHLORO-2-FLUOROBENZYL)-1-[(2S)-1-HYDROXY-3-METHYLBUTAN-2-YL]-7-METHOXY-4-OXO-1,4-DIHYDROQUINOLINE-3-CARBOXYLIC ACID OR SALT THEREOF FOR TREATING RETROVIRUS INFECTION” (priority 2006, published 2009) are described below.

Data set [1] relates to recombinant HIV-1 clones (patient protease/RT sequences in HIV-1 NL4-3). Kind of data set: microbe, parasite or virus in culture. It counts as cell-based.
Data set [2] relates to human PBMCs. The note with it: 7 days.
Data set [3] can be described thus: in vitro. The note with it: human.
Data set [4] in a line: MTS cytotoxicity in monocyte/macrophage cultures. The format is cell-based. The note with it: human, fresh adherent monocyte/macrophage cultures, HIV-infected, macrophages, MTS, read-out: TC50. As for the experimental part:
Anti-HIV Efficacy Evaluation in Fresh Human Monocyte/Macrophage. Monocytes/macrophages were allowed to adhere to the interior 60 wells of a 96 well flat bottomed plate for 2 to 18 hours at 37° C., 5% CO2. Following 6 to 14 days in culture, the monocyte/macrophage cultures were washed 3 times to remove any non-adherent cells and serially diluted test compounds were added followed by the addition of a pre-titered amount of HIV. Cultures were washed a final time by media removal 24 hours post infection, fresh compound added and the cultures continued for an additional six days. […] At assay termination, virus replication was measured by collecting cell-free supernatant samples which were analyzed for HIV p24 antigen content using a commercially available p24 ELISA assay (Coulter). […] MTS staining for PBMC viability to measure cytotoxicity. […] The mitochondrial enzymes of metabolically active cells metabolize MTS to yield a soluble formazan product. This allows the rapid quantitative analysis of cell viability and compound cytotoxicity. […] At termination of the assay, 20 μL of MTS reagent was added per well. The microtiter plates were then incubated 4-6 hrs at 37° C. The incubation intervals were chosen based on empirically determined times for optimal dye reduction. […] Data analysis.

In data set [5] the test system is HIV-1 clinical isolates.
The test system of data set [6] is HIV-1 macrophage-tropic virus strains.
The subject of data set [7] is HIV-1 clinical isolates. Kind of data set: microbe, parasite or virus in culture. The note with it: Human immunodeficiency virus 1, PBMC.
The test system of data set [8] is HIV-1 macrophage-tropic virus strains. The experiment in a line: microbe, parasite or virus in culture.
Data set [9] relates to HIV-2 CDC 310319. The experiment in a line: microbe, parasite or virus in culture. The settings on record: Human immunodeficiency virus 2, PBMC.
Data set [10] in a line: MTS staining for PBMC viability (cytotoxicity). The note with it: human.
Data set [11] deals with human PBMCs. The experiment in a line: MTS staining for PBMC viability (cytotoxicity). The note with it: read-out: TC50, PBMCs, MTS.
For data set [12], the system named is drug-resistant HIV-1 isolates. Kind of data set: Anti-HIV efficacy in fresh human PBMCs, drug-resistant HIV-1 isolates. The note with it: for IC50: Human immunodeficiency virus 1, PBMC, in Homo sapiens.

Where two headings read alike, the source gives them in different places. Bounds are passed on as bounds.

For `C[C@H](Cn1cnc2c(N)ncnc21)OCP(=O)(O)O` [TFV, Tenofovir], the “Fold-increase (EC50 fold increase above reference clone NL4-3)” value in [1] (RT mutation 2-5 TAMs, K65 and/or Q151, N=4, averaged) turned out to be 8.5; in [1] (RT mutation 2-5 TAMs, N=16, averaged), 3.5; in data set [1] (RT mutation 2-5 TAMs, T69ins, N=4, averaged), 12.2; in data set [1] (RT mutation 6 TAMS, M184, N=7, averaged) it was 1.6; in data set [1] (RT mutation 6 TAMs, N=5, averaged) it was 5.0; in [1] (RT mutation K65 and/or Q151, M184, N=12, averaged), 2.2. Moreover, the “Fold-increase (EC50 fold increase above reference clone NL4-3)” value in data set [1] (RT mutation K65 and/or Q151, N=7, averaged) is reported as 4.0; in [1] (RT mutation M184, N=12, averaged) it was 0.6; in data set [1] (Wild-type clones, N=8, averaged) it was 0.8.

In turn, enfuvirtide had a CC50 in data set [2] greater than 10000 nM. This compound also showed a CC50 at 7 days in data set [3] greater than 10000 nM.

For the compound `O=C1Nc2ccc(Cl)cc2[C@@](C#CC2CC2)(C(F)(F)F)O1` [Efavirenz, efavirenz], the figures for the CC50 at 7 days in data set [4] (ADA assay), in data set [4] (Ba-L assay) and in data set [10] were greater than 10000 nM, greater than 10000 nM and greater than 1000 nM, respectively. Besides, the “TI (TC50/IC50)” value in data set [5] (HIV-1 96USHIPS7 in PBMCs) is listed as greater than 1538.5; in data set [5] (HIV-1 BFC01 in PBMCs) it was greater than 1449.3; in [5] (HIV-1 BR/92/021 in PBMCs) it was greater than 21.3; in data set [5] (HIV-1 BR/92/025 in PBMCs), greater than 3333.3; in data set [5] (HIV-1 BR/93/017 in PBMCs), greater than 1724.1; in [5] (HIV-1 BR/93/020 in PBMCs), greater than 3125.0. Moreover, the “TI (TC50/IC50)” value in data set [5] (HIV-1 BR/93/022 in PBMCs) is greater than 1612.9; in data set [5] (HIV-1 CMU 02 in PBMCs), greater than 549.5; in data set [5] (HIV-1 JV 1083 in PBMCs), greater than 1538.5; in [5] (HIV-1 RW/92/016 in PBMCs), greater than 1639.3; in data set [5] (HIV-1 UG/92/046 in PBMCs), greater than 840.3; in data set [6] (HIV-1 ADA in macrophages), greater than 2793.3. Moreover, the “TI (TC50/IC50)” value in [6] (HIV-1 Ba-L in macrophages) is greater than 4717.0; in data set [12] (HIV-1 52-52 in PBMCs) it was greater than 9901.0; in [12] (HIV-1 144-44 in PBMCs) it was greater than 1666.7; in [12] (HIV-1 1002-60 in PBMCs), greater than 4761.9; in data set [12] (HIV-1 1064-52 in PBMCs) it was greater than 3448.3; in data set [12] (HIV-1 MDR 769 in PBMCs) it was greater than 1851.9. Further, the “TI (TC50/IC50)” value in [12] (HIV-1 MDR 807 in PBMCs) was greater than 1408.5. In addition, the CC50 in data set [2], in [11] (52-52 assay), in data set [11] (144-44 assay), in data set [11] (1002-60 assay), in data set [11] (1064-52 assay) and in data set [11] (BFC01 assay) was greater than 1000 nM each time. Besides, the CC50 in [11] (BR/92/021 assay), in data set [11] (BR/92/025 assay), in data set [11] (BR/93/017 assay), in [11] (BR/93/020 assay), in data set [11] (BR/93/022 assay) and in [11] (CMU 02 assay) was greater than 1000 nM in each case. The CC50 in [11] (HIV-2 CDC 310319 assay), in data set [11] (JV 1083 assay), in [11] (RW/92/016 assay) and in data set [11] (UG/92/046 assay) was greater than 1000 nM throughout. The IC50 in data set [7] (HIV-1 96USHIPS7 (subtype /B, R5) in PBMCs) is 0.65 nM; in [7] (HIV-1 BR/92/021 (subtype B/B, R5) in PBMCs) it was 47 nM; in data set [7] (HIV-1 BR/93/017 (subtype B/B, R5) in PBMCs) it was 0.58 nM; in data set [7] (HIV-1 BR/93/020 (subtype F/F, R5/X4) in PBMCs), 0.32 nM; in [7] (HIV-1 BR/93/022 (subtype /B, R5) in PBMCs), 0.62 nM; in data set [7] (HIV-1 CMU 02 (subtype /EA, X4) in PBMCs) it was 1.82 nM. Further, the IC50 in data set [7] (HIV-1 JV 1083 (subtype /G, R5) in PBMCs) is 0.65 nM; in [7] (HIV-1 RW/92/016 (subtype A/A, R5) in PBMCs), 0.61 nM; in [7] (HIV-1 UG/92/046 (subtype D/D, X4) in PBMCs), 1.19 nM; in data set [8] (Human immunodeficiency virus 1, BAL, Macrophage), 2.12 nM; in [8] (Human immunodeficiency virus 1, Macrophage), 3.58 nM; in data set [9], greater than 1000 nM. The IC50 in data set [12] (HIV-1 52-52 (protease-inhibitor resistant) in PBMCs) was less than 0.1 nM; in data set [12] (against several viruses (e.g., MDR 1385, MDR 3761) in PBMCs), greater than 1000 nM; in [12] (multi-drug-resistant HIV-1 MDR 769 in PBMCs), 0.54 nM; in data set [12] (multi-drug-resistant HIV-1 MDR 807 in PBMCs), 0.71 nM; in data set [12] (multi-drug-resistant HIV-1 MDR 1385 in PBMCs), greater than 1000 nM; in data set [12] (multi-drug-resistant HIV-1 MDR 3761 in PBMCs), greater than 1000 nM.
